Converted amounts (≈) assume the structure as drawn. Read-outs that look alike come from different tables or passages of the source. *1 amine or outer side, *2 acyl side, *3 side chain or, on linkers, in order; H or OH if unused. Where a SMILES comes first, the peptide text is derived from it. Bridges are numbered along the chain shown (N, C = ends). [ ]: non-standard residue; d: D form. The star is where a group is joined. hTyr(3S-OH,4S-OH,3'-OSO3H) = N[C@H](C(=O)O)[C@H](O)[C@@H](O)c1ccc(O)c(OS(=O)(=O)O)c1; Orn(4R-OH,5R-OH) = O=C([C@H](C[C@@H](O)[C@@H](O)N[*:3])N[*:1])[*:2]; Pro(3S-OH,4S-Me) = C[C@H]1CN[C@H](C(=O)O)[C@H]1O; X1 = CCCCCOc1ccc(-c2cc(-c3ccc(C(=O)*)cc3)no2)cc1; Gln(3R-OH) = NC(=O)C[C@@H](O)[C@H](N)C(=O)O; Hyp = O=C(O)[C@@H]1C[C@@H](O)CN1
Tests used:
[1] = system: F. solani isolate; assay: Antifungal susceptibility testing; type: cell-based, F. solani complex; settings: Fusarium solani
[2] = cited from earlier work
[3] = system: CYP2C19; settings: compared to ilaprazole and pantoprazole; cited from earlier work
[4] = system: F. solani isolate; assay: In vitro synergy testing of the voriconazole and micafungin combination; type: cell-based, F. solani complex; settings: tested at University of Texas Health Science Center in San Antonio
[5] = cited from earlier work; remark: listed apart in the source
[6] = system: F. solani complex
[7] = system: Fusarium spp.; settings: cited from earlier work

In the case of `C[C@@H]1[C@H](O)[C@@H](C)/C=C/C=C/C=C/C=C/C=C/C=C/C=C/[C@H](O[C@@H]2O[C@H](C)[C@@H](O)[C@H](N)[C@@H]2O)C[C@@H]2O[C@](O)(C[C@@H](O)C[C@@H](O)[C@H](O)CC[C@@H](O)C[C@@H](O)CC(=O)O[C@H]1C)C[C@H](O)[C@H]2C(=O)O` [amphotericin B], the MIC [1] is reported as 8 µg/mL (≈ 8.66 µM).

For `CN/C(=N/CCSCc1nc[nH]c1C)NC#N` [cimetidine], the Toxicity [2] is given as “central nervous system effects and anti-androgenic side effects”.

For `COc1ccc2nc([S@@+]([O-])Cc3ncc(C)c(OC)c3C)[nH]c2c1` [esomeprazole], the CYP2C19 inhibitory effect [3] is listed as “more potent inhibitory effects”.

In the case of `C[C@@H](c1nc(-c2ccc(C#N)cc2)cs1)[C@](O)(Cn1cncn1)c1cc(F)ccc1F` [isavuconazole], the MIC [1] is reported as over 16 µg/mL.

For `Cc1c(OCC(F)(F)F)ccnc1C[S+]([O-])c1nc2ccccc2[nH]1` (stereo not shown) [lansoprazole], the CYP2C19 inhibitory effect [3] is listed as “more potent inhibitory effects”.

In the case of `CCCCCOc1ccc(-c2cc(-c3ccc(C(=O)N[C@H]4C[C@@H](O)[C@@H](O)NC(=O)[C@@H]5[C@@H](O)[C@@H](C)CN5C(=O)[C@H]([C@H](O)CC(N)=O)NC(=O)[C@H]([C@H](O)[C@@H](O)c5ccc(O)c(OS(=O)(=O)O)c5)NC(=O)[C@@H]5C[C@@H](O)CN5C(=O)[C@H]([C@@H](C)O)NC4=O)cc3)no2)cc1` [micafungin] (X1-[Orn(4R-OH,5R-OH)]T[Hyp][hTyr(3S-OH,4S-OH,3'-OSO3H)][Gln(3R-OH)][Pro(3S-OH,4S-Me)]; lactam 1-C), the Synergy of combination [4] is reported as “did not reveal synergy”.

For `COc1ccc2[nH]c([S+]([O-])Cc3ncc(C)c(OC)c3C)nc2c1` (stereo not shown) [omeprazole], the “Omeprazole AUC with voriconazole compared to absence of co-administration” value ([5]; voriconazole co-administration) is given as 4 times higher, the “Omeprazole Cmax with voriconazole compared to absence of co-administration” value ([5]; voriconazole co-administration) is given as 2 times higher and the CYP2C19 inhibitory effect [3] is given as “more potent inhibitory effects”.

With `CC[C@@H]([C@H](C)O)n1ncn(-c2ccc(N3CCN(c4ccc(OC[C@@H]5CO[C@@](Cn6cncn6)(c6ccc(F)cc6F)C5)cc4)CC3)cc2)c1=O` [posaconazole] the MIC [1] was over 16 µg/mL.

With `C[C@@H](c1ncncc1F)[C@](O)(Cn1cncn1)c1ccc(F)cc1F` [voriconazole] the “Repeat imaging of metastatic sites of proven or suspected infection” value ([6]; 6 months after initiation of voriconazole therapy) was “significant interval improvement or resolution of all metastatic sites”, the “Voriconazole-related toxicity (e.g., hepatotoxicity, neurotoxicity)” value ([6]; ~10.7 mg/kg/dose PO q8h for several months, troughs 4 to 6 mcg/mL) was “without any evidence of voriconazole-related toxicity” and the MIC [1] was 4 µg/mL (≈ 11.5 µM). The “Increase of voriconazole AUC” value ([5]; healthy subjects, with cimetidine 400 mg PO q12h) was 23%, the “Increase of voriconazole AUC” value ([5]; healthy volunteers, with omeprazole 40 mg PO q24h) was 40% and the MIC50 [7] was 8 µg/mL (≈ 22.9 µM).

Source: publication PMC10198811 (The Pediatric infectious disease journal, 2023)
